Tested on: purified E. coli protein synthesis system (PURE)
Assay: Myc-peptide translation assay
Format: biochemical
Settings: MALDI-TOF, assuming similar ionization properties

What does the source list for `N[C@H](Cc1ccc(O)cc1)C(=O)O` [^DTyr, D-tyrosine]?
consecutive incorporations (in the absence of EF-P): ≤ 2; consecutive incorporations (with 8 μM EF-P): ≤ 5

Which consecutive incorporations (in the absence of EF-P) does the source give for `N[C@@H](Cc1ccc(O)cc1)C(=O)O` [^LTyr, L-tyrosine] here?
The consecutive incorporations was “up to 3”.

And the consecutive incorporations (with 8 μM EF-P)?
Its consecutive incorporations is “up to 7”.
